Square brackets hold non-standard residues; d marks the D form. Peptide text beside a SMILES is read from it.
Experiments:
[1] = tested on: human red blood cells (hRBCs); settings: red cells of human, 2 h
Protocol: The hemolytic activity of all the cyclic peptides was determined using human red blood cells (hRBC) purchased from BioIVT, USA. […] Peptide-induced hemolysis was tested in triplicate by mixing 75 μL of the peptide solution in PBS (two-fold serial dilution) with 75 μL of a 4% (v/v) hRBC suspension in phosphate-buffered saline. The plates were incubated for 2 h at 37 °C without agitation and centrifuged at 1000g for 10 min. Aliquots (100 μL) of the supernatant were transferred to 96-well plates, where hemoglobin release was measured spectrophotometrically at 567 nm. Percent hemolysis was calculated by the following formula: [drawing 1] where A represents the absorbance of the peptide sample at 567 nm and A0 and At represent zero percent and 100% hemolysis determined in phosphate-buffered saline and 1% Triton X-100, respectively.

MRSA (ATCC BAA-1556) = tested on: MRSA (ATCC BAA-1556); set-up: MIC MRSA: unit not given beside the values; settings: supplementary csv, unit not given
[2] = tested on: P. aeruginosa (ATCC 27883); set-up: MIC P. aeruginosa: unit not given beside the values; settings: supplementary csv, unit not given
E. coli (ATCC 25922) = tested on: E. coli (ATCC 25922); set-up: MIC E. coli: unit not given beside the values; settings: supplementary csv, unit not given
[3] = tested on: K. pneumoniae (ATCC BAA-1705); settings: supplementary csv, unit not given

N=C(N)NCCC[C@@H]1NC(=O)[C@H](CCCNC(=N)N)NC(=O)[C@H](Cc2c[nH]c3ccccc23)NC(=O)[C@H](Cc2c[nH]c3ccccc23)NC(=O)[C@H](Cc2c[nH]c3ccccc23)NC1=O [2a, [R2W3]] (cyclo(RRWWW); ring closure inferred)
HC50 [1]: 120 µg/mL
MIC MRSA (MRSA (ATCC BAA-1556)): 32
MIC P. aeruginosa [2]: 256
MIC E. coli (E. coli (ATCC 25922)): 256
MIC K. pneumoniae [3]: 256

N=C(N)NCCC[C@@H]1NC(=O)[C@H](CCCNC(=N)N)NC(=O)[C@H](Cc2c[nH]c3ccccc23)NC(=O)[C@H](Cc2c[nH]c3ccccc23)NC(=O)[C@H](Cc2c[nH]c3ccccc23)NC(=O)[C@H](Cc2c[nH]c3ccccc23)NC1=O [2b, [R2W4]] (cyclo(RRWWWW); ring closure inferred)
HC50 [1]: 85 µg/mL
MIC MRSA (MRSA (ATCC BAA-1556)): 64
MIC P. aeruginosa [2]: 256
MIC E. coli (E. coli (ATCC 25922)): 256
MIC K. pneumoniae [3]: 256

N=C(N)NCCC[C@@H]1NC(=O)[C@H](CCCNC(=N)N)NC(=O)[C@H](Cc2c[nH]c3ccccc23)NC(=O)[C@H](Cc2c[nH]c3ccccc23)NC(=O)[C@H](Cc2c[nH]c3ccccc23)NC(=O)[C@H](CCCNC(=N)N)NC1=O [3a, [R3W3]] (cyclo(WWWRRR); ring closure inferred)
HC50 [1]: 155 µg/mL
MIC MRSA (MRSA (ATCC BAA-1556)): 16
MIC P. aeruginosa [2]: 128
MIC E. coli (E. coli (ATCC 25922)): 32
MIC K. pneumoniae [3]: 64

N=C(N)NCCC[C@@H]1NC(=O)[C@H](CCCNC(=N)N)NC(=O)[C@H](Cc2c[nH]c3ccccc23)NC(=O)[C@H](Cc2c[nH]c3ccccc23)NC(=O)[C@H](Cc2c[nH]c3ccccc23)NC(=O)[C@H](Cc2c[nH]c3ccccc23)NC(=O)[C@H](CCCNC(=N)N)NC1=O [3b, [R3W4]] (cyclo(RRRWWWW); ring closure inferred)
HC50 [1]: 105 µg/mL
MIC MRSA (MRSA (ATCC BAA-1556)): 8
MIC P. aeruginosa [2]: 256
MIC E. coli (E. coli (ATCC 25922)): 32
MIC K. pneumoniae [3]: 64

N=C(N)NCCC[C@@H]1NC(=O)[C@H](CCCNC(=N)N)NC(=O)[C@H](Cc2c[nH]c3ccccc23)NC(=O)[C@H](Cc2c[nH]c3ccccc23)NC(=O)[C@H](Cc2c[nH]c3ccccc23)NC(=O)[C@H](Cc2c[nH]c3ccccc23)NC(=O)[C@H](Cc2c[nH]c3ccccc23)NC(=O)[C@H](CCCNC(=N)N)NC1=O [3c, [R3W5]] (cyclo(RRRWWWWW); ring closure inferred)
HC50 [1]: 80 µg/mL

N=C(N)NCCC[C@@H]1NC(=O)[C@H](CCCNC(=N)N)NC(=O)[C@H](Cc2c[nH]c3ccccc23)NC(=O)[C@H](Cc2c[nH]c3ccccc23)NC(=O)[C@H](Cc2c[nH]c3ccccc23)NC(=O)[C@H](Cc2c[nH]c3ccccc23)NC(=O)[C@H](Cc2c[nH]c3ccccc23)NC(=O)[C@H](Cc2c[nH]c3ccccc23)NC(=O)[C@H](CCCNC(=N)N)NC1=O [3d, [R3W6]]
HC50 [1]: 65 µg/mL
MIC MRSA (MRSA (ATCC BAA-1556)): 64
MIC P. aeruginosa [2]: 256
MIC E. coli (E. coli (ATCC 25922)): 64
MIC K. pneumoniae [3]: 128

N=C(N)NCCC[C@@H]1NC(=O)[C@H](CCCNC(=N)N)NC(=O)[C@H](Cc2c[nH]c3ccccc23)NC(=O)[C@H](Cc2c[nH]c3ccccc23)NC(=O)[C@H](Cc2c[nH]c3ccccc23)NC(=O)[C@H](Cc2c[nH]c3ccccc23)NC(=O)[C@H](Cc2c[nH]c3ccccc23)NC(=O)[C@H](Cc2c[nH]c3ccccc23)NC(=O)[C@H](Cc2c[nH]c3ccccc23)NC(=O)[C@H](CCCNC(=N)N)NC1=O [3e, [R3W7]] (cyclo(RRRWWWWWWW))
HC50 [1]: 60 µg/mL
MIC MRSA (MRSA (ATCC BAA-1556)): 256
MIC P. aeruginosa [2]: 256
MIC E. coli (E. coli (ATCC 25922)): 256
MIC K. pneumoniae [3]: 64

N=C(N)NCCC[C@H]1NC(=O)[C@H](Cc2c[nH]c3ccccc23)NC(=O)[C@H](Cc2c[nH]c3ccccc23)NC(=O)[C@H](Cc2c[nH]c3ccccc23)NC(=O)[C@H](Cc2c[nH]c3ccccc23)NC(=O)[C@H](Cc2c[nH]c3ccccc23)NC(=O)[C@H](Cc2c[nH]c3ccccc23)NC(=O)[C@H](Cc2c[nH]c3ccccc23)NC(=O)[C@@H](CCCNC(=N)N)NC(=O)[C@@H](CCCNC(=N)N)NC1=O [3f, [dR3W7]] (cyclo([dR][dR][dR]WWWWWWW))
MIC MRSA (MRSA (ATCC BAA-1556)): 64
MIC P. aeruginosa [2]: 256
MIC E. coli (E. coli (ATCC 25922)): 256
MIC K. pneumoniae [3]: 256

N=C(N)NCCC[C@H]1NC(=O)[C@H](Cc2c[nH]c3ccccc23)NC(=O)[C@H](Cc2c[nH]c3ccccc23)NC(=O)[C@H](Cc2c[nH]c3ccccc23)NC(=O)[C@H](Cc2c[nH]c3ccccc23)NC(=O)[C@@H](CCCNC(=N)N)NC(=O)[C@@H](CCCNC(=N)N)NC(=O)[C@@H](CCCNC(=N)N)NC1=O [4a, [dR4W4]] (cyclo([dR][dR][dR][dR]WWWW))
HC50 [1]: 110 µg/mL
MIC MRSA (MRSA (ATCC BAA-1556)): 8
MIC P. aeruginosa [2]: 64
MIC E. coli (E. coli (ATCC 25922)): 16
MIC K. pneumoniae [3]: 64

N=C(N)NCCC[C@@H]1NC(=O)[C@H](CCCNC(=N)N)NC(=O)[C@H](CCCNC(=N)N)NC(=O)[C@H](Cc2c[nH]c3ccccc23)NC(=O)[C@H](Cc2c[nH]c3ccccc23)NC(=O)[C@H](Cc2c[nH]c3ccccc23)NC(=O)[C@H](Cc2c[nH]c3ccccc23)NC(=O)[C@H](Cc2c[nH]c3ccccc23)NC(=O)[C@H](CCCNC(=N)N)NC1=O [4b, [R4W5]]
HC50 [1]: 100 µg/mL
MIC MRSA (MRSA (ATCC BAA-1556)): 8
MIC P. aeruginosa [2]: 128
MIC E. coli (E. coli (ATCC 25922)): 64
MIC K. pneumoniae [3]: 128

N=C(N)NCCC[C@@H]1NC(=O)[C@H](CCCNC(=N)N)NC(=O)[C@H](CCCNC(=N)N)NC(=O)[C@H](Cc2c[nH]c3ccccc23)NC(=O)[C@H](Cc2c[nH]c3ccccc23)NC(=O)[C@H](Cc2c[nH]c3ccccc23)NC(=O)[C@H](Cc2c[nH]c3ccccc23)NC(=O)[C@H](Cc2c[nH]c3ccccc23)NC(=O)[C@H](Cc2c[nH]c3ccccc23)NC(=O)[C@H](CCCNC(=N)N)NC1=O [4c, [R4W6]]
HC50 [1]: 75 µg/mL
MIC MRSA (MRSA (ATCC BAA-1556)): 128
MIC P. aeruginosa [2]: 128
MIC E. coli (E. coli (ATCC 25922)): 128
MIC K. pneumoniae [3]: 256

N=C(N)NCCC[C@@H]1NC(=O)[C@H](CCCNC(=N)N)NC(=O)[C@H](CCCNC(=N)N)NC(=O)[C@H](Cc2c[nH]c3ccccc23)NC(=O)[C@H](Cc2c[nH]c3ccccc23)NC(=O)[C@H](Cc2c[nH]c3ccccc23)NC(=O)[C@H](Cc2c[nH]c3ccccc23)NC(=O)[C@H](Cc2c[nH]c3ccccc23)NC(=O)[C@H](Cc2c[nH]c3ccccc23)NC(=O)[C@H](Cc2c[nH]c3ccccc23)NC(=O)[C@H](CCCNC(=N)N)NC1=O [4d, [R4W7]] (cyclo(RRRRWWWWWWW))
HC50 [1]: 60 µg/mL
MIC MRSA (MRSA (ATCC BAA-1556)): 256
MIC P. aeruginosa [2]: >256
MIC E. coli (E. coli (ATCC 25922)): 128
MIC K. pneumoniae [3]: 256

N=C(N)NCCC[C@@H]1NC(=O)[C@H](CCCNC(=N)N)NC(=O)[C@H](CCCNC(=N)N)NC(=O)[C@H](Cc2c[nH]c3ccccc23)NC(=O)[C@H](Cc2c[nH]c3ccccc23)NC(=O)[C@H](Cc2c[nH]c3ccccc23)NC(=O)[C@H](Cc2c[nH]c3ccccc23)NC(=O)[C@H](Cc2c[nH]c3ccccc23)NC(=O)[C@H](Cc2c[nH]c3ccccc23)NC(=O)[C@H](CCCNC(=N)N)NC(=O)[C@H](CCCNC(=N)N)NC1=O [5c, [R5W6]] (cyclo(RRRRRWWWWWW))
HC50 [1]: 140 µg/mL
MIC MRSA (MRSA (ATCC BAA-1556)): >256
MIC P. aeruginosa [2]: >256
MIC E. coli (E. coli (ATCC 25922)): >256
MIC K. pneumoniae [3]: >256

N=C(N)NCCC[C@@H]1NC(=O)[C@H](CCCNC(=N)N)NC(=O)[C@H](CCCNC(=N)N)NC(=O)[C@H](Cc2c[nH]c3ccccc23)NC(=O)[C@H](Cc2c[nH]c3ccccc23)NC(=O)[C@H](Cc2c[nH]c3ccccc23)NC(=O)[C@H](Cc2c[nH]c3ccccc23)NC(=O)[C@H](Cc2c[nH]c3ccccc23)NC(=O)[C@H](Cc2c[nH]c3ccccc23)NC(=O)[C@H](Cc2c[nH]c3ccccc23)NC(=O)[C@H](CCCNC(=N)N)NC(=O)[C@H](CCCNC(=N)N)NC1=O [5d, [R5W7]] (cyclo(RRRRRWWWWWWW))
HC50 [1]: 115 µg/mL
MIC MRSA (MRSA (ATCC BAA-1556)): >256
MIC P. aeruginosa [2]: >256
MIC E. coli (E. coli (ATCC 25922)): >256
MIC K. pneumoniae [3]: >256

N=C(N)NCCC[C@@H]1NC(=O)[C@H](CCCNC(=N)N)NC(=O)[C@H](CCCNC(=N)N)NC(=O)[C@H](CCCNC(=N)N)NC(=O)[C@H](Cc2c[nH]c3ccccc23)NC(=O)[C@H](Cc2c[nH]c3ccccc23)NC(=O)[C@H](Cc2c[nH]c3ccccc23)NC(=O)[C@H](Cc2c[nH]c3ccccc23)NC(=O)[C@H](Cc2c[nH]c3ccccc23)NC(=O)[C@H](CCCNC(=N)N)NC(=O)[C@H](CCCNC(=N)N)NC(=O)[C@H](CCCNC(=N)N)NC1=O [7b, [R7W5]] (cyclo(RRRRRRRWWWWW))
HC50 [1]: 175 µg/mL
MIC MRSA (MRSA (ATCC BAA-1556)): 8
MIC E. coli (E. coli (ATCC 25922)): 64

N=C(N)NCCC[C@@H]1NC(=O)[C@H](CCCNC(=N)N)NC(=O)[C@H](CCCNC(=N)N)NC(=O)[C@H](CCCNC(=N)N)NC(=O)[C@H](Cc2c[nH]c3ccccc23)NC(=O)[C@H](Cc2c[nH]c3ccccc23)NC(=O)[C@H](Cc2c[nH]c3ccccc23)NC(=O)[C@H](Cc2c[nH]c3ccccc23)NC(=O)[C@H](Cc2c[nH]c3ccccc23)NC(=O)[C@H](Cc2c[nH]c3ccccc23)NC(=O)[C@H](CCCNC(=N)N)NC(=O)[C@H](CCCNC(=N)N)NC(=O)[C@H](CCCNC(=N)N)NC1=O [7c, [R7W6]] (cyclo(RRRRRRRWWWWWW))
HC50 [1]: 170 µg/mL
MIC MRSA (MRSA (ATCC BAA-1556)): 32
MIC E. coli (E. coli (ATCC 25922)): 64

N=C(N)NCCC[C@@H]1NC(=O)[C@H](CCCNC(=N)N)NC(=O)[C@H](CCCNC(=N)N)NC(=O)[C@H](CCCNC(=N)N)NC(=O)[C@H](Cc2c[nH]c3ccccc23)NC(=O)[C@H](Cc2c[nH]c3ccccc23)NC(=O)[C@H](Cc2c[nH]c3ccccc23)NC(=O)[C@H](Cc2c[nH]c3ccccc23)NC(=O)[C@H](Cc2c[nH]c3ccccc23)NC(=O)[C@H](Cc2c[nH]c3ccccc23)NC(=O)[C@H](Cc2c[nH]c3ccccc23)NC(=O)[C@H](CCCNC(=N)N)NC(=O)[C@H](CCCNC(=N)N)NC(=O)[C@H](CCCNC(=N)N)NC1=O [7d, [R7W7]] (cyclo(RRRRRRRWWWWWWW))
HC50 [1]: 140 µg/mL
MIC MRSA (MRSA (ATCC BAA-1556)): 16
MIC E. coli (E. coli (ATCC 25922)): 32

— publication PMC9743092, “Membrane-Active Cyclic Amphiphilic Peptides: Broad-Spectrum Antibacterial Activity Alone and in Combination with Antibiotics” (Journal of Medicinal Chemistry, 2022)
